How the values were obtained:
[1] = tested on: HCT-116; test: Residual PLD activity in human HCT-116 cells at 10 uM measured after 1 hr by amplex red phospholipase D assay as % of control
[2] = tested on: HCT-116; test: Cytotoxicity against human HCT-116 cells assessed as inhibition of cell growth incubated for 48 hrs by WST-1 assay; format: functional, cell-based; conditions: HCT-116, 48 h
[3] = Inhibition of PLD in human A549 cells measured after 1 hr by amplex red phospholipase D assay; format: cell-based
[4] = tested on: A549; test: Cytotoxicity against human A549 cells assessed as inhibition of cell growth incubated for 48 hrs by WST-1 assay; format: functional, cell-based; conditions: A549, 48 h

Row | Compound | level, % of control [1] | other results
1 | O=C(Nc1cccc(C(F)(F)F)c1)c1cc2cc(F)ccc2[nH]1 | 47.6% | 
2 | COc1ccc(NC(=O)c2cc3cc(F)ccc3[nH]2)cc1OC | 52.2% | 
3 | O=C(Nc1cc(C(F)(F)F)cc(C(F)(F)F)c1)c1cc2cc(C(F)(F)F)ccc2[nH]1 | 45.8% | 
4 | O=C(Oc1cc(C(F)(F)F)cc(C(F)(F)F)c1)c1cc2cc(F)ccc2[nH]1 | 33.4% | IC50 [2]: > 50 µM; IC50 [3]: 3.1 µM; IC50 [4]: 50 µM
5 | O=C(Nc1cc(F)cc(F)c1)c1cc2cc(F)ccc2[nH]1 | 51.1% | 
6 | O=C(CCc1c[nH]c2ccccc12)Nc1cccc(F)c1 | 50.6% | 
7 | O=C(Nc1ccc(F)cc1)c1cc2cc(F)ccc2[nH]1 | 53.2% | 
8 | O=C(Nc1ccc(O)c(O)c1)c1c[nH]c2ccccc12 | 51.1% | 
9 | O=C(CCCc1c[nH]c2ccccc12)Nc1cc(C(F)(F)F)cc(C(F)(F)F)c1 | 55.5% | 
10 | O=C(Cc1c[nH]c2ccccc12)Nc1ccc(O)c(O)c1 | 54.4% | 
11 | O=C(Cc1c[nH]c2ccccc12)Nc1cc(C(F)(F)F)cc(C(F)(F)F)c1 | 53% | 
12 | C[C@@H](CN1CCC(n2c(=O)[nH]c3cc(Cl)ccc32)CC1)NC(=O)c1ccc2ccccc2c1 | 30.4% | 
13 | O=C(Nc1ccc(O)c(O)c1)c1cc2cc(F)ccc2[nH]1 |  | IC50 [2]: > 50 µM; IC50 [3]: 4.31 µM; IC50 [4]: > 200 µM
14 | COc1ccc(CNC(=O)c2cc3cc(F)ccc3[nH]2)cc1OC | 48% | 
